Drawing on patent US10973817B2, “Pharmaceutical compounds” (SENTINEL ONCOLOGY LIMITED, priority 2014, dated 2021), this text covers IC50 for two compounds.

Broadly, the IC50 is the concentration that inhibits the measured activity by half.

Counter-ions that a name gives are not always drawn.

The target of this experiment is Chk-1 kinase (Homo sapiens (Human), UniProt O14757). Briefly: Chk-1 kinase inhibiting activity (33P-ATP filter-binding kinase assay). The conditions noted are these: against Chk-1 kinase; recombinant full length GST-tagged, 0.5 nM; CHKtide substrate 20 μM; 120 minutes at room temperature. It counts as biochemical. The procedure:
Chk-1 Kinase Inhibiting Activity
The compounds of the invention were tested for activity against Chk-1 kinase using the materials and protocols set out below.
Base Reaction buffer: 20 mM Hepes (pH 7.5), 10 mM MgCl2, 1 mM EGTA, 0.02% Brij35, 0.02 mg/ml BSA, 0.1 mM Na3VO4, 2 mM DTT, 1% DMSO • Required cofactors are added individually to each kinase reaction Reaction Procedure: (i) Prepare indicated substrate in freshly prepared Base Reaction Buffer (ii) Deliver any required cofactors to the substrate solution above (iii) Deliver indicated kinase into the substrate solution and gently mix (iv) Deliver compounds in DMSO into the kinase reaction mixture (v) Deliver ^33P-ATP (specific activity 0.01 μCi/μl final) into the reaction mixture to initiate the reaction. (vi) Incubate kinase reaction for 120 minutes at room temperature (vii) Reactions are spotted onto P81 ion exchange paper (Whatman #3698-915) (viii) Wash filters extensively in 0.1% phosphoric acid. (ix) Dry filters and measure counts in scintillation counter Kinase Information: CHK-1H—Genbank Accession # AF016582 Recombinant full length construct, N-terminal GST tagged, purified from insect cells. […]
From the results obtained by following the above protocol, the IC50 values against Chk-1 kinase of each of the compounds of Examples 1-153 were determined and these are shown in Table 3.

Chain of Chk-1 kinase (O14757 whole entry): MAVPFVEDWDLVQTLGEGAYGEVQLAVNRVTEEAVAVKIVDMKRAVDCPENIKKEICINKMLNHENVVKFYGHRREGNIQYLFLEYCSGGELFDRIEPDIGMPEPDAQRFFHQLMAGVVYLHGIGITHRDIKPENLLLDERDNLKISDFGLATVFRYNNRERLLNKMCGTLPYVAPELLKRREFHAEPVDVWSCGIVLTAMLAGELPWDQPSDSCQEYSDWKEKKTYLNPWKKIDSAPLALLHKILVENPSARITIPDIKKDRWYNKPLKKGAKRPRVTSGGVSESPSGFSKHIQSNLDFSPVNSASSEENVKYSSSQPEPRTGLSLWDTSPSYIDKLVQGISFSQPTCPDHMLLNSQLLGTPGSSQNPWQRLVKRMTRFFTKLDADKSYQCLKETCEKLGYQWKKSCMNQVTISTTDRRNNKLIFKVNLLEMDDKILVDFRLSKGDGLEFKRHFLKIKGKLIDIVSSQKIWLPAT

As to `COc1cc(CN2CC[C@H](OC)C2)ccc1-c1cc(Nc2cnc(C#N)cn2)n[nH]1` [Example 124, 5-[[5-[2-methoxy-4-[[(3S)-3-methoxypyrrolidin-1H-yl]methyl]phenyl]-1H-pyrazol-3-yl]amino]pyrazine-2-carbonitrile, hydrochloride], the IC50 is 0.25 nM.
Next, `COc1cc(CN2CC[C@@H](OC)C2)ccc1-c1cc(Nc2cnc(C#N)cn2)n[nH]1` [Example 125, 5-[[5-[2-methoxy-4-[[(3R)-3-methoxypyrrolidin-1H-yl]methyl]phenyl]-1H-pyrazol-3-yl]amino]pyrazine-2-carbonitrile, hydrochloride]: 0.28 nM.
